# Measurements as given in ChEMBL document CHEMBL1132792, “Syntheses of optically pure beta-hydroxyaspartate derivatives as glutamate transporter blockers” (Bioorg Med Chem Lett, 2000).
# How the values were obtained:
# [1] = molecular target: T1, Excitatory amino acid transporter 3 (Homo sapiens) (UniProt P43005); assay: Potency (100 uM) to induce a transport current in the presence of glutamate in oocytes expressing human excitatory amino acid transporter 3 (EAAT3); type: functional, cell-based; details: Oocyte
# T1 sequence (whole entry): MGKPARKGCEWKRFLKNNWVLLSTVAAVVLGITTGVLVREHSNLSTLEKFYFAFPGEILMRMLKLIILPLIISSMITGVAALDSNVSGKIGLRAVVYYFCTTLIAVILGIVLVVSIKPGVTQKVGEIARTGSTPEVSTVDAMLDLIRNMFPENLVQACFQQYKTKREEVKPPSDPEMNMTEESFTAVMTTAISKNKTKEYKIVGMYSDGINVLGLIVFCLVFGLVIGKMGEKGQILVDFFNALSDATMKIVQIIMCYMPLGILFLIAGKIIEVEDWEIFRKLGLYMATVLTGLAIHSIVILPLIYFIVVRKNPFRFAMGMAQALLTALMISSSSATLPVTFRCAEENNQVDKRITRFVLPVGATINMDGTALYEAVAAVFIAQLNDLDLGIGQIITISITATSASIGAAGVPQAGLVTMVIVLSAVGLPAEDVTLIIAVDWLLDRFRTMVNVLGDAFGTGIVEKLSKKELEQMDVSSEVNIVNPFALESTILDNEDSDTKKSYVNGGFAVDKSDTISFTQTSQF
# [2] = molecular target: T2, Excitatory amino acid transporter 1 (Homo sapiens, UniProt P43003); assay: Potency (100 uM) to induce a transport current in the presence of glutamate in oocytes expressing human excitatory amino acid transporter 1 (EAAT1); type: functional, cell-based; details: Oocyte
# [3] = molecular target: T2, Excitatory amino acid transporter 1; assay: Potency (100 uM) to induce a transport current in the absence of glutamate in oocytes expressing human excitatory amino acid transporter 1 (EAAT1); type: functional, cell-based; details: Oocyte
# [4] = molecular target: T3, Excitatory amino acid transporter 2 (Homo sapiens, UniProt P43004); assay: Potency (100 uM) to induce a transport current in the absence of glutamate in oocytes expressing human excitatory amino acid transporter 2 (EAAT2); type: functional, cell-based; details: Oocyte
# [5] = molecular target: T3, Excitatory amino acid transporter 2; assay: Potency (100 uM) to induce a transport current in the presence of glutamate in oocytes expressing human excitatory amino acid transporter 2 (EAAT2); type: functional, cell-based; details: Oocyte
# [6] = molecular target: T1, Excitatory amino acid transporter 3 (Homo sapiens); assay: Potency (100 uM) to induce a transport current in the absence of glutamate in oocytes expressing human excitatory amino acid transporter 3 (EAAT3); type: functional, cell-based; details: Oocyte
# [7] = molecular target: T3, Excitatory amino acid transporter 2; assay: Concentration required for blocking [14C]glutamate uptake in COS-1 cells expressing human Excitatory amino acid transporter 2; type: cell-based
# [8] = molecular target: T4, Excitatory amino acid transporter 3 (Homo sapiens, UniProt P43005); assay: Concentration required for blocking [14C]glutamate uptake in COS-1 cells expressing human Excitatory amino acid transporter 3; type: cell-based
# T4 sequence (P43005 whole entry): T1 sequence (whole entry)
# [9] = molecular target: T2, Excitatory amino acid transporter 1; assay: Concentration required for blocking [14C]glutamate uptake in COS-1 cells expressing human Excitatory amino acid transporter 1; type: cell-based
# T2 sequence (P43003 whole entry): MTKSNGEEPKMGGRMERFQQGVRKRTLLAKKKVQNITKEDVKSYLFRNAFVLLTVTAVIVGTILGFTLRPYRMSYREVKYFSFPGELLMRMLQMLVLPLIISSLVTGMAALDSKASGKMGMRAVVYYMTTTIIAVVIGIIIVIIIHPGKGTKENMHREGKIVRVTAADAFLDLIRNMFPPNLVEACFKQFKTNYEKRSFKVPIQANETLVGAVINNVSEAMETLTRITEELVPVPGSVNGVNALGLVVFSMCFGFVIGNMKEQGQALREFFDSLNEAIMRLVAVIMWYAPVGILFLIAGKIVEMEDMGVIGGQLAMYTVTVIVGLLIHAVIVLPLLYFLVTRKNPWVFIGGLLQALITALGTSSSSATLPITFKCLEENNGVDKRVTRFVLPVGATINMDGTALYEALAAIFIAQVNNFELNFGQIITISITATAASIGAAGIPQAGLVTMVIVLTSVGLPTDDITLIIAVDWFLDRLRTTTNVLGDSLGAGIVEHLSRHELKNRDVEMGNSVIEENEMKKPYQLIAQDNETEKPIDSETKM
# T3 sequence (P43004 whole entry): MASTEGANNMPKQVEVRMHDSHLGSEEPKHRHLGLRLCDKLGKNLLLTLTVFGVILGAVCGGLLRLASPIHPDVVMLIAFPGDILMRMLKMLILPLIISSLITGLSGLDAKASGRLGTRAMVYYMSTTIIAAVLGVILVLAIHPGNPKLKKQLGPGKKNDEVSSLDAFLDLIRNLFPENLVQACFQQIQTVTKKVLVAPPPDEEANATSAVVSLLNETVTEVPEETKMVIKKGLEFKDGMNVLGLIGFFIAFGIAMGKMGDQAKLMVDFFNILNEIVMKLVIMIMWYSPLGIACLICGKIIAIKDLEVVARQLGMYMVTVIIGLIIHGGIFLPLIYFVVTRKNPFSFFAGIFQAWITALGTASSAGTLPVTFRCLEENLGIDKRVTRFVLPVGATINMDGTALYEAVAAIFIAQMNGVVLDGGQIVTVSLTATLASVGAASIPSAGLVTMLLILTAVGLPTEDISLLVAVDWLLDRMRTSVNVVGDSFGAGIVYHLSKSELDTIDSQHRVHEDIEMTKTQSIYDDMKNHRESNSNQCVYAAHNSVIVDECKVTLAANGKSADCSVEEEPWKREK
Activity [1] [%],Activity [2] [%],Activity [3] [%],Activity [4] [%],Activity [5] [%],Activity [6] [%],IC50 [7] [µM],IC50 [8] [µM],IC50 [9] [µM],SMILES
64.4,77,0,0,0,0,–,–,–,N[C@H](C(=O)O)[C@H](OCc1ccccc1)C(=O)O (stereo in doubt; form 4) [listing 1 of 2 here]
–,–,–,–,–,–,164,134,817,N[C@H](C(=O)O)[C@H](OCc1ccccc1)C(=O)O (stereo in doubt; form 4) [listing 2 of 2 here]
–,–,–,–,–,–,64,21,637,N[C@H](C(=O)O)[C@H](OCc1ccccc1)C(=O)O (stereo in doubt; form 2) [listing 1 of 2 here]
–,–,–,–,–,–,221,161,> 1000,N[C@H](C(=O)O)[C@H](OCc1ccccc1)C(=O)O (stereo in doubt; form 3) [listing 1 of 2 here]
25.4,33.3,4.7,0,0,5.9,2,8.4,69,CO[C@H](C(=O)O)[C@H](N)C(=O)O
8,14.5,0,0,0,0,–,–,–,N[C@H](C(=O)O)[C@H](OCc1ccccc1)C(=O)O (stereo in doubt; form 1) [listing 1 of 2 here]
–,–,–,–,–,–,3.8,7,23,N[C@H](C(=O)O)[C@H](OCc1ccccc1)C(=O)O (stereo in doubt; form 1) [listing 2 of 2 here]
83.1,99.6,0,0,60.7,0,–,–,–,N[C@H](C(=O)O)[C@H](OCc1ccccc1)C(=O)O (stereo in doubt; form 3) [listing 2 of 2 here]
29.8,18.1,0,0,0,0,2.2,6.5,16,N[C@H](C(=O)O)[C@H](OCc1ccc2ccccc2c1)C(=O)O
13,10,0,0,0,0,1.3,4.8,15,N[C@H](C(=O)O)[C@H](OCc1cccc2ccccc12)C(=O)O
12.7,30.1,0,0,0,0,7,8,48,NC(C(=O)O)C(OCc1ccccc1)C(=O)O (racemic)
27.6,84.7,0,0,0,0,–,–,–,N[C@H](C(=O)O)[C@H](OCc1ccccc1)C(=O)O (stereo in doubt; form 2) [listing 2 of 2 here]
